Data from the NIST ThermoML archive (doi:10.1016/j.tca.2010.06.014).
“And” between values parts separate entries of the source, which are not always exact repeats. Equal values may be shown once.

Conditions: Liquid, DSC

O=[N+]([O-])OCC(CO[N+](=O)[O-])O[N+](=O)[O-] [nitroglycerin]
Conditions | vapor or sublimation pressure
298.15 K | 7e-05 kPa and 7.1e-05 kPa
303.15 K | 0.00014 kPa and 0.000137 kPa
313.15 K | 0.00046 kPa and 0.000462 kPa
323.15 K | 0.0014 kPa and 0.001402 kPa
333.15 K | 0.00387 kPa and 0.003866 kPa
343.15 K | 0.00981 kPa and 0.009811 kPa
353.15 K | 0.02313 kPa
363.15 K | 0.05111 kPa
373.15 K | 0.1066 kPa
383.15 K | 0.211 kPa
393.15 K | 0.3988 kPa
403.15 K | 0.7228 kPa
413.15 K | 1.261 kPa
423.15 K | 2.127 kPa
433.15 K | 3.475 kPa
443.15 K | 5.519 kPa
453.15 K | 8.539 kPa
463.15 K | 12.9 kPa
473.15 K | 19.06 kPa
483.15 K | 27.59 kPa
493.15 K | 39.2 kPa
503.15 K | 54.73 kPa
513.15 K | 75.19 kPa
523.15 K | 101.77 kPa
